Test systems include BT-549 breast; HCC-2998 colon; HOP-62 NSCLC; HOP-92 NSCLC; HT29 colon; MCF7 breast; MDA-MB-435; OVCAR-8 ovarian; SF-268 CNS; UACC-62 melanoma.
What all share (experiment): growth of human tumour cells (NCI), 48 h

Several values for one entry are separate records, joined by “and”; a condition that tells them apart may be missing. Equal entries are not always repeated.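 Interpolation was linear, between the two tested concentrations surrounding the appropriate level; five concentrations were tested over 48 hours in 96-well plates. GI50 = concentration required for 50% inhibition of growth. Definition used: TGI = concentration required for complete inhibition of growth.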 Bounds are passed on as bounds.

Consider `COc1cccc(N2CCN(CC(=O)N3CCN(c4nnc(-c5ccc(Cl)cc5)c(-c5ccc(Cl)cc5)n4)CC3)CC2)c1`, for which the GI50 was 12.9 µM with BT-549 breast; over 100 µM in the experiment on HCC-2998 colon; 32.1 µM with HOP-62 NSCLC; 14.7 µM in the experiment with HOP-92 NSCLC; 6.47 µM with HT29 colon; 5.14 µM with MCF7 breast. The GI50 was 9.26 µM with MDA-MB-435, 29.4 µM in the experiment with OVCAR-8 ovarian, over 100 µM with SF-268 CNS and 31.3 µM with UACC-62 melanoma. In addition, the TGI in the experiment on BT-549 breast was over 100 µM; with HCC-2998 colon, over 100 µM; in the experiment with HOP-62 NSCLC, over 100 µM; in the experiment with HOP-92 NSCLC, 36.4 µM; with HT29 colon, over 100 µM; in the experiment with MCF7 breast, 61.3 µM. The TGI with MDA-MB-435, with OVCAR-8 ovarian, in the experiment with SF-268 CNS and in the experiment with UACC-62 melanoma was over 100 µM throughout.

For the molecule `CN(/N=C/c1cccc2cccnc12)c1ccc([N+](=O)[O-])cc1[N+](=O)[O-]`, the TGI with BT-549 breast was 59.7 µM; in the experiment with HCC-2998 colon it was over 100 µM; in the experiment with HOP-62 NSCLC, 22.9 µM; in the experiment on HOP-92 NSCLC it was 42.7 µM; with HT29 colon it was over 100 µM; in the experiment with MCF7 breast, over 100 µM. Moreover, the TGI with MDA-MB-435 is over 100 µM; in the experiment on OVCAR-8 ovarian, over 100 µM; in the experiment with SF-268 CNS, 58.6 µM; in the experiment with UACC-62 melanoma, 63.1 µM.

`COC(=O)C1CC23CCCN4CCC5(c6ccccc6N(C=O)C15CC2)C43` (configuration not stated): the TGI in the experiment with BT-549 breast, in the experiment on HCC-2998 colon, in the experiment with HOP-62 NSCLC, in the experiment with HOP-92 NSCLC, with HT29 colon and with MCF7 breast was over 100 µM throughout. Also, the TGI in the experiment with MDA-MB-435, in the experiment with OVCAR-8 ovarian, in the experiment on SF-268 CNS and with UACC-62 melanoma was over 100 µM each time.

With `O=C(O)CN(CC(=O)O)Cc1cc(C#Cc2ccc(C#Cc3ccccc3)cc2)cc(CN(CC(=O)O)CC(=O)O)n1`, the TGI is 66.6 µM in the experiment with BT-549 breast; over 72.4 µM in the experiment on HCC-2998 colon; 71 µM in the experiment with HOP-62 NSCLC; 99.6 µM in the experiment on HOP-92 NSCLC; over 100 µM with HT29 colon; 41.8 µM in the experiment with MCF7 breast. Further, the TGI was over 100 µM with MDA-MB-435, over 60.6 µM in the experiment with OVCAR-8 ovarian, over 85.4 µM in the experiment on SF-268 CNS and 40.4 µM in the experiment with UACC-62 melanoma.

Consider `CCOC(=O)N1CCN(/[N+]([O-])=N/Oc2ccc([N+](=O)[O-])cc2[N+](=O)[O-])CC1`, for which the GI50 in the experiment on BT-549 breast was 2.62 µM; in the experiment on HCC-2998 colon, 1.12 µM; in the experiment with HOP-62 NSCLC, 3.14 µM; in the experiment with HOP-92 NSCLC it was 0.122 µM; in the experiment with HT29 colon it was 0.322 µM; with MCF7 breast, 0.365 µM. The GI50 in the experiment on MDA-MB-435 is 0.315 µM; with OVCAR-8 ovarian, 3.49 µM; in the experiment with SF-268 CNS it was 3.86 µM; with UACC-62 melanoma, 2.65 µM. Moreover, the TGI in the experiment with BT-549 breast came out at 18.6 µM; in the experiment on HCC-2998 colon, 2.33 µM; in the experiment on HOP-62 NSCLC it was 13.6 µM; in the experiment on HOP-92 NSCLC, 3.75 µM; in the experiment with HT29 colon it was 15.7 µM; in the experiment with MCF7 breast, 8.16 µM. The TGI in the experiment with MDA-MB-435 was 2.98 µM; in the experiment with OVCAR-8 ovarian, 12.9 µM; in the experiment on SF-268 CNS it was 10.6 µM; in the experiment on UACC-62 melanoma, 12.8 µM.

Turning to `O=C(CCCCCCNC(=O)c1cnc(N(c2ccccc2)c2ccccc2)nc1)NO`, the GI50 was 12.5 µM in the experiment on BT-549 breast; 3.38 µM with HCC-2998 colon; 3.46 µM with HOP-62 NSCLC; 2.13 µM in the experiment with HOP-92 NSCLC; 2.29 µM in the experiment with HT29 colon; 2.99 µM with MCF7 breast. Moreover, the GI50 in the experiment with MDA-MB-435 is 2.04 µM; in the experiment with OVCAR-8 ovarian it was 2.25 µM; with SF-268 CNS it was 3.77 µM; in the experiment on UACC-62 melanoma it was 1.21 µM. In addition, the TGI in the experiment with BT-549 breast was over 84.3 µM; in the experiment on HCC-2998 colon, 12.5 µM; in the experiment on HOP-62 NSCLC, 28.1 µM; with HOP-92 NSCLC, 15.7 µM; in the experiment on HT29 colon it was over 35.4 µM; with MCF7 breast, over 67.1 µM. Moreover, the TGI with MDA-MB-435 was over 36.8 µM; with OVCAR-8 ovarian, over 100 µM; with SF-268 CNS, 33.2 µM; in the experiment with UACC-62 melanoma, 4.42 µM.

As for `COc1ccc(C(=S)N2CCN(c3cccc(C)c3)CC2)cc1OC`, the GI50 with BT-549 breast is 6.31 µM; in the experiment on HCC-2998 colon, 5.41 µM; in the experiment with HOP-62 NSCLC it was 5.53 µM; in the experiment with HOP-92 NSCLC, 10.5 µM; in the experiment with HT29 colon, 3.3 µM; in the experiment on MCF7 breast, 3.06 µM. Further, the GI50 in the experiment with MDA-MB-435 is 1.09 µM; in the experiment with OVCAR-8 ovarian, 8.47 µM; in the experiment with SF-268 CNS, 6.18 µM; in the experiment on UACC-62 melanoma it was 4.1 µM. Also, the TGI is over 100 µM in the experiment on BT-549 breast; over 100 µM in the experiment on HCC-2998 colon; 29.4 µM with HOP-62 NSCLC; 91.4 µM with HOP-92 NSCLC; over 100 µM in the experiment with HT29 colon; over 100 µM with MCF7 breast. The TGI with MDA-MB-435 is 4.04 µM; with OVCAR-8 ovarian, over 100 µM; in the experiment on SF-268 CNS it was 86.8 µM; in the experiment with UACC-62 melanoma it was over 100 µM.

As for `CCN(Cc1cc(Nc2nc(C)cn3c(-c4cn[nH]c4)cnc23)sn1)C(C)(C)CO`, the GI50 in the experiment on BT-549 breast was 0.0458 µM; with HCC-2998 colon, 0.0741 µM; in the experiment with HOP-62 NSCLC it was 0.0411 µM; in the experiment with HOP-92 NSCLC it was 0.0119 µM; in the experiment on HT29 colon it was 0.0725 µM; with MCF7 breast, 0.026 µM. Moreover, the GI50 in the experiment with MDA-MB-435 is 0.0826 µM; in the experiment with OVCAR-8 ovarian it was 0.0411 µM; with SF-268 CNS it was 0.0376 µM; in the experiment with UACC-62 melanoma, 0.0387 µM. The TGI in the experiment on BT-549 breast turned out to be 1.18 µM; with HCC-2998 colon, 4.56 µM; with HOP-62 NSCLC, 0.688 µM; with HOP-92 NSCLC, 0.0714 µM; with HT29 colon, 0.812 µM; in the experiment on MCF7 breast it was 2.01 µM. The TGI was determined as 1.31 µM in the experiment with MDA-MB-435, 11 µM with OVCAR-8 ovarian, 1.87 µM in the experiment with SF-268 CNS and 12.8 µM with UACC-62 melanoma.

As for `C=C(C)C(O)CCC1(C)C=Cc2c(c(C)cc3c2[nH]c2ccccc23)O1` (configuration not stated), the GI50 in the experiment with BT-549 breast is 12.9 µM; in the experiment with HCC-2998 colon, 2.19 µM; with HOP-62 NSCLC, 2.47 µM; with HOP-92 NSCLC it was 10.3 µM; in the experiment on HT29 colon it was 1.71 µM; with OVCAR-8 ovarian, 10.7 µM. Moreover, the GI50 in the experiment on SF-268 CNS is 5.6 µM. Further, the TGI in the experiment on BT-549 breast is 25.5 µM; in the experiment with HCC-2998 colon, 12.1 µM and 5 µM; in the experiment on HOP-62 NSCLC it was 9.46 µM and 6.11 µM; with HOP-92 NSCLC, 25 µM and 22.8 µM; with HT29 colon, 8.53 µM and 3.26 µM; with MCF7 breast, 26.4 µM. Moreover, the TGI is 21.3 µM in the experiment on MDA-MB-435; 25 µM and 22.9 µM in the experiment on OVCAR-8 ovarian; 25 µM and 19.3 µM in the experiment on SF-268 CNS; 11 µM with UACC-62 melanoma.

These data come from PubChem BioAssay (NCI).
